Values quoted from earlier work in patent US8445278B2, “Process for producing decellularized biological tissues” (Medtronic, Inc., priority 2005, dated 2013).
pIC50: −log10 of the molar value.

System: fresh rat hepatocytes

SMILES: CCCCCCCCCCCCOS(=O)(=O)[O-].[Na+] [SDS, sodium dodecyl sulphate]
- pIC50: 4.31
- concentration at which SDS is toxic: ≥ 10 µM
